Here are results for six compounds from patent US20070010489A1 (priority 2002, published 2007).

The structures appear in SMILES notation. Where two headings read alike, the source gives them in different places.

Data set [1] has as its system PBMC in human whole blood.
For data set [2], the system named is Recombinant HIV-1 Strains With Resistance Mutations in the Protease Gene. Description: Cross-Resistance Profile Assay, whole panel. Type of data set: cell-based. To be noted: resistance = 5-fold and higher change in EC50 vs wild type; 11 mutant viruses.
Data set [3] has as its system recombinant HIV-1 30N/50S/82I/88D. In words: microbe, parasite or virus in culture. Type of data set: cell-based.
In data set [4] the test system is recombinant HIV-1 46I/47V/50V. Description: microbe, parasite or virus in culture. Type of data set: cell-based.
Data set [5] deals with T1, 84V90M (Human immunodeficiency virus type 1 group M subtype B, UniProt P04585, I572V/L578M). In words: biochemical. The class given is biochemical, HIV. The following applies: Enzymatic assay.
The test system of another data set is WT HIV-1. Description: microbe, parasite or virus in culture. To be noted: Human immunodeficiency virus 1, read-out: Cell-based assay (MT-4) EC50/nM WT.
Data set [6] concerns mutant HIV-1 with I84V/L90M mutations. In words: microbe, parasite or virus in culture. Type of data set: cell-based.
Data set [7] concerns recombinant HIV-1 10I/48V/54V/82A. In words: microbe, parasite or virus in culture. Type of data set: cell-based.
The subject of data set [8] is recombinant HIV-1 48V/54V/71V/82S. Description: microbe, parasite or virus in culture. The class given is cell-based.
Data set [9] deals with recombinant HIV-1 10I/48V/71V/82A/90M. Description: microbe, parasite or virus in culture. The class given is cell-based.
The nature of the next data set: in vitro. The following applies: human, CC50 (μM).
The subject of a further data set is 48V54V82A. In words: microbe, parasite or virus in culture. The class given is cell-based, HIV. The following applies: Cell-based assay (MT-4), 48V54V82A; read-out: EC50 48V54V 82A.
In another data set the test system is 48V54V82S. Description: microbe, parasite or virus in culture. Type of data set: cell-based, HIV. The following applies: Cell-based assay (MT-4), 48V54V82S; read-out: EC50 48V54V 82S.
The target in data set [10] is T1, 84V90M. Description: cell-based. To be noted: Cell-based assay (MT-4). On the set-up: species or system HIV.
The next data set has as its system 46I50V. In words: microbe, parasite or virus in culture. Type of data set: cell-based, HIV. The following applies: Cell-based assay (MT-4), 46I50V; read-out: EC50 46I50V.
In another data set the test system is 30N82I88D. Description: microbe, parasite or virus in culture. Type of data set: cell-based, HIV. To be noted: Cell-based assay (MT-4), 30N82I88D; read-out: EC50 30N 82I88D.
The next data set has as its system 48V82A90M. In words: microbe, parasite or virus in culture. Type of data set: cell-based, HIV. The following applies: read-out: EC50 48V82A 90M; Cell-based assay (MT-4), 48V82A90M.
For the next data set, the system named is WT. Description: microbe, parasite or virus in culture. The following applies: read-out: EC50 WT. Type of data set: cell-based, HIV.
The target in data set [11] is T1, 84V90M. Type of data set: biochemical, HIV. To be noted: Enzymatic assay.

In the case of `CCOC(=O)C(C)NP(=O)(COc1ccc(CC(NC(=O)OC2COC3OCCC23)C(O)CN(CC(C)C)S(=O)(=O)c2ccc(OC)cc2)cc1)Oc1ccccc1` (stereo not drawn) [GS-16571], the “Major Intracellular Metabolites” value in data set [1] is “X,GS-8373”. Moreover, the “Total No. of Resistant Viruses” value in data set [2] was found to be 0.
Take `CCOP(=O)(CCNC(=O)Oc1ccc(CC2C(O)C(O)C(Cc3ccc(OC)cc3)N(Cc3cccc(N)c3)C(=O)N2Cc2cccc(N)c2)cc1)OCC` (stereo not drawn) [OCH3, Ph-mNH2, OCONH(CH2)2PO3Et2]: the EC50 amounted to 77 nM in data set [3] (Human immunodeficiency virus 1, read-out: Cell-based assay (MT-4) EC50/nM 30N82I88D); 184 nM in data set [4] (Human immunodeficiency virus 1, read-out: Cell-based assay (MT-4) EC50/nM 46I50V); 74 nM in the data set with WT HIV-1; 2260 nM in data set [6] (Human immunodeficiency virus 1, read-out: Cell-based assay (MT-4) EC50/nM 84V90M); 262 nM in data set [7] (Human immunodeficiency virus 1, read-out: Cell-based assay (MT-4) EC50/nM 48V54V82A); 214 nM in [8] (Human immunodeficiency virus 1, read-out: Cell-based assay (MT-4) EC50/nM 48V54V82S). Moreover, the EC50 in data set [9] (Human immunodeficiency virus 1, read-out: Cell-based assay (MT-4) EC50/nM 48V82A90M) was 215 nM. Half-maximal inhibition against 84V90M [5] (IC50) required 116 nM.
Consider `CCCCOC(=O)C(C)NP(=O)(COc1ccc(CC(NC(=O)OC2COC3OCCC23)C(O)CN(CC(C)C)S(=O)(=O)c2ccc(OC)cc2)cc1)NC(C)C(=O)OCCCC` (stereo not drawn) [GS-16503], for which the “Total No. of Resistant Viruses” value in [2] stood at 0.
For the compound `CCOP(=O)(COc1ccc(CC2C(O)C(O)C(Cc3ccc(OC)cc3)N(Cc3ccc(O)cc3)C(=O)N2Cc2ccc(O)cc2)cc1)OCC` (stereo not drawn) [OCH3, Ph-pOH, OCH2PO3Et2], the EC50 in data set [3] (MT-4, 30N82I88D, read-out: Cell-based assay (MT-4) EC50/nM 30N82I88D) came to 25 nM; in [4] (MT-4, 46I50V, read-out: Cell-based assay (MT-4) EC50/nM 46I50V), 90 nM; in data set [6] (MT-4, 84V90M, read-out: Cell-based assay (MT-4) EC50/nM 84V90M), 148 nM; in data set [7] (MT-4, 48V54V82A, read-out: Cell-based assay (MT-4) EC50/nM 48V54V82A), 70 nM; in data set [8] (MT-4, 48V54V82S, read-out: Cell-based assay (MT-4) EC50/nM 48V54V82S) it was 129 nM; in data set [9] (MT-4, 48V82A90M, read-out: Cell-based assay (MT-4) EC50/nM 48V82A90M), 54 nM.
Consider `CCOP(=O)(COc1ccc(CC(NC(=O)OC2COC3OCCC23)C(O)CN(CC(C)C)S(=O)(=O)c2ccc(OC)cc2)cc1)OCC` (stereo not drawn) [drawing 1768 R1=OEt R2=OEt], for which the I84V/L90M fold change result in data set [6] (fold difference in EC50 mutant vs wild type, class symbols) is “− (≦3)”. For the same compound, in “in vitro”, the CC50 was in the range of 5 to 50 µM.
Consider `O=C1N(Cc2ccccc2)C(Cc2ccccc2)C(O)C(O)C(Cc2ccc(OCP(=O)(O)O)cc2)N1Cc1ccccc1` (stereo not drawn), for which the EC50 worked out at 1440 nM in the data set on 48V54V82A; 1900 nM in the data set on 48V54V82S; 2460 nM on 84V90M [10]; 589 nM in the data set on 46I50V; 293 nM in the data set on 30N82I88D; 3290 nM in the data set with 48V82A90M. The EC50 with WT is 107 nM. Besides, on 84V90M [11], the IC50 turned out to be 48 nM.
